Reference: patent US9249163B2, “PDE10a inhibitors for the treatment of type II diabetes” (Janssen Pharmaceutica, NV, priority 2013, dated 2016)
Where a name gives a salt, the structure may show the parent alone.

Key:
[1] = molecular target: Human recombinant PDE10A2 (Homo sapiens (Human), UniProt Q9Y233); test: In vitro hPDE10a (human recombinant PDE10A2, scintillation proximity assay); type: biochemical; conditions: human recombinant PDE10A2, 60 nM cAMP, 60 min at room temperature; read-out: hPDE10a2 IC50
Description: Human recombinant PDE10A2 was expressed in Sf9 cells, using a recombinant baculovirus construct containing the full length sequence containing a 6×His sequence following the start Met to allow metal affinity purification of the recombinant protein. Cells were harvested and the phosphodiesterase protein was purified by metal chelate chromatography on Ni-sepharose 6FF.
The affinity of the compounds of Formula (I) for phophodiesterases (PDE) was measured by a scintillation proximity assay (SPA). PDE Yttrium Silicate SPA beads allow PDE activity to be measured by direct binding of the primary phosphate groups of non-cyclic AMP or GMP to the beads via a complex iron chelation mechanism. The amount of bound tritiated product ([^3H]-AMP) is measured by liquid scintillation counting.
The compounds were dissolved and diluted in 100% DMSO in polystyrene plates to a concentration of 100-fold the final concentration in the assay. Human PDE10A enzyme solution (10 μL) was added to 20 μL, of incubation buffer (50 mM Tris pH 7.8, 8.3 mM MgCl2, 1.7 mM EGTA), 10 μL, substrate solution consisting of a mixture of non-tritiated and tritiated substrate (60 nM cAMP, 0.008 μCi ^3H-cAMP), and 0.4 μL, compound in 100% DMSO in a 384-well plate, and incubated for 60 min at room temperature. After incubation, the reaction was stopped with 20 μL, of stop solution, consisting of PDE SPA beads (17.8 mg beads/mL in 18 mM zinc sulphate). After sedimentation of the beads for 30 min, the radioactivity was measured in a Perkin Elmer Topcount scintillation counter and results were expressed as cpm. To measure the low control, no enzyme was added to the reaction mixture.
Data were calculated as the percentage of inhibition of total activity measured in the absence of test compound (% control).

[2] = molecular target: Rat recombinant PDE10a (rPDE10a) (Rattus norvegicus (Rat), UniProt Q9QYJ6); test: In vitro assay PDE10a (rat recombinant PDE10a, SPA); type: biochemical; conditions: 60 nM cAMP, 60 min at rt, read-out: rPDE10a2 IC50
Description: Rat recombinant PDE10a (rPDE10a) was expressed in Sf9 cells using a recombinant rPDE10a baculovirus construct. Cells were harvested after 48 h of infection and the rPDE10a protein was purified by metal chelate chromatography on Ni-sepharose 6FF. Tested compounds were dissolved and diluted in 100% DMSO to a concentration 100 fold of the final concentration in the assay. Compound dilutions (0.4 μL) were added in 384 well plates to 20 μL of incubation buffer (50 mM Tris pH 7.8, 8.3 mM MgCl2, 1.7 mM EGTA). 10 μL of rPDE10a enzyme in incubation buffer was added and the reaction was started by addition of 10 μL substrate to a final concentration of 60 nM cAMP and 0.008 μCi ^3H-cAMP. The reaction was incubated for 60 min at rt. After incubation, the reaction was stopped with 20 μL of 17.8 mg/mL PDE SPA beads. After sedimentation of the beads during 30 min the radioactivity was measured in a Perkin Elmer Topcount scintillation counter and results were expressed as cpm. For blank values the enzyme was omitted from the reaction and replaced by incubation buffer. Control values were obtained by addition of a final concentration of 1% DMSO instead of compound.

Chain of Rat recombinant PDE10a (rPDE10a) (Q9QYJ6 whole entry): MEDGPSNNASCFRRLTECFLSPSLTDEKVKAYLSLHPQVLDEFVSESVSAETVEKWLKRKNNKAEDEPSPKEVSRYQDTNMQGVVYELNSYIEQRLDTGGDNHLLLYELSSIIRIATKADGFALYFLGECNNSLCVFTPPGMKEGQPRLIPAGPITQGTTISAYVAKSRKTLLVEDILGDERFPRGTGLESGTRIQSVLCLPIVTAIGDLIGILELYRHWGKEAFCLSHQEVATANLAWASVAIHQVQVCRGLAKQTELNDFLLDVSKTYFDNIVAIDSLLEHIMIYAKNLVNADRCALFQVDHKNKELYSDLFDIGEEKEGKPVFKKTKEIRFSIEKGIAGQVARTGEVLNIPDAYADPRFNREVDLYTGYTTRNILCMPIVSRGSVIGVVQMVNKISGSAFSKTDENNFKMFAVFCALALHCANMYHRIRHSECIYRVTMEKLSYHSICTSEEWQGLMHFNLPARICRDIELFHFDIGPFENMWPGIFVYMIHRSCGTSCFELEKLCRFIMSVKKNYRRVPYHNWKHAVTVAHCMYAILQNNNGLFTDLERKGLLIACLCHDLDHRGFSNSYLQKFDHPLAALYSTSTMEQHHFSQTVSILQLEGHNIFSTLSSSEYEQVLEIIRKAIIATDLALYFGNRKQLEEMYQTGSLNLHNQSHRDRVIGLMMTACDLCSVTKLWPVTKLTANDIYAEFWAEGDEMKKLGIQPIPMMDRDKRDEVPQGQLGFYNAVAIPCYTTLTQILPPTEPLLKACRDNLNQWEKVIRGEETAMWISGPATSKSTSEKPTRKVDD
Chain of Human recombinant PDE10A2 (Q9Y233 267-1055): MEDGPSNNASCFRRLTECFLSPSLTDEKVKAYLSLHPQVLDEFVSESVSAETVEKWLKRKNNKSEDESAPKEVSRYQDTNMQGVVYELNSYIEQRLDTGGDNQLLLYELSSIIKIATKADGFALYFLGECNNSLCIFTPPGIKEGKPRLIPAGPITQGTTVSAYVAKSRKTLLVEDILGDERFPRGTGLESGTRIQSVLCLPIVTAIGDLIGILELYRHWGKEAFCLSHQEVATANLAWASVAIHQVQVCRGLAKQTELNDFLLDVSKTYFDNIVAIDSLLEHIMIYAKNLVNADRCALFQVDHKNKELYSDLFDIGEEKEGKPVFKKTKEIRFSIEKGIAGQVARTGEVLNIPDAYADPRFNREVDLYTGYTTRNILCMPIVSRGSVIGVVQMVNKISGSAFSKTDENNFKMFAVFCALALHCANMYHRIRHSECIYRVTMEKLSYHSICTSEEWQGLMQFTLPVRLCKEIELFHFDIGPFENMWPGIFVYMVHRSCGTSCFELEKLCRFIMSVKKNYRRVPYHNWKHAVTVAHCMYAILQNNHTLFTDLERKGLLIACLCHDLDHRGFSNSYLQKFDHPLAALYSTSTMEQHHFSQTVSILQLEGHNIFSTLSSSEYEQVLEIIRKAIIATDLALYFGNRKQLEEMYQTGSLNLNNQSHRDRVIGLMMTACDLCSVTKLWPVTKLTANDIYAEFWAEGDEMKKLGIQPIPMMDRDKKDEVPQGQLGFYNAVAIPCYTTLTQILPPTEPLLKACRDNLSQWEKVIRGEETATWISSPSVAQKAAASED

IC50 [1] [nM] | IC50 [2] [nM] | Compound
30 | 20 | OC(c1ccc(-c2cnc(N3CCOCC3)c3nc(/C=C/c4ccc5ccccc5n4)cn23)cc1)(C(F)(F)F)C(F)(F)F [Cpd 2, (E)-1,1,1,3,3,3-hexafluoro-2-(4-(8-morpholino-2-(2-(quinolin-2-yl)vinyl)imidazo[1,2-a]pyrazin-5-yl)phenyl)propan-2-ol]
5 | 9 | O=C(O)c1ccc(-c2cnc(N3CCOCC3)c3nc(/C=C/c4ccc5ccccc5n4)cn23)cc1F [Cpd 3, (E)-2-Fluoro-4-(8-morpholino-2-(2-(quinolin-2-yl)vinyl)imidazo[1,2-a]pyrazin-5-yl)benzoic acid hydrochloric acid salt]
12 | 14 | O=C(O)c1ccc(-c2cnc(N3CCOCC3)c3nc(/C=C/c4ccc5ccccc5n4)cn23)nc1 [Cpd 6, (E)-6-(8-morpholino-2-(2-(quinolin-2-yl)vinyl)imidazo[1,2-a]pyrazin-5-yl)nicotinic acid hydrochloric acid salt]
6 | 16 | COc1cccc(/C=C/c2cn3c(-c4ccc(C(=O)O)cc4)cnc(N4CCOCC4)c3n2)n1 [Cpd 7, (E)-4-(2-(2-(6-Methoxypyridin-2-yl)vinyl)-8-morpholinoimidazo[1,2-a]pyrazin-5-yl)benzoic acid]
1 | 2 | O=C(O)Cn1cc(-c2cnc(N3CCOCC3)c3nc(C#Cc4ccc5ccccc5n4)cn23)cn1 [Cpd 9, 2-(4-(8-Morpholino-2-(quinolin-2-ylethynyl)imidazo[1,2-a]pyrazin-5-yl)-1H-pyrazol-1-yl)acetic acid]
12 | 16 | O=C(O)c1ccc(-c2cnc(N3CCOCC3)c3nc(C#Cc4ccccn4)cn23)cc1 [Cpd 10, 4-(8-Morpholino-2-(pyridin-2-ylethynyl)imidazo[1,2-a]pyrazin-5-yl)benzoic acid]
7 | 9 | O=C(O)c1ccc(-c2cnc(N3CCOCC3)c3nc(C#Cc4nc5ccccc5s4)cn23)cc1 [Cpd 11, 4-(2-(Benzo[d]thiazol-2-ylethynyl)-8-morpholinoimidazo[1,2-a]pyrazin-5-yl)benzoic acid]
2 | 4 | CS(=O)(=O)NC(=O)c1ccc(-c2cnc(N3CCOCC3)c3nc(CSc4ccc5ccccc5n4)cn23)cc1 [Cpd 12, N-(Methylsulfonyl)-4-(8-morpholino-2-((quinolin-2-ylthio)methyl)imidazo[1,2-a]pyrazin-5-yl)benzamide]
30 | 51 | CC(C)[C@H](Nc1ccc(-c2cnc(N3CCOCC3)c3nc(/C=C/c4ccc5ccccc5n4)cn23)cc1)C(=O)O [Cpd 15, (S,E)-3-Methyl-2-(4-(8-morpholino-2-(2-(quinolin-2-yl)vinyl)imidazo[1,2-a]pyrazin-5-yl)phenylamino)butanoic acid trifluoroacetic acid salt]
83 | 102 | COCCOCCOc1ccc(-c2cnc(N3CCOCC3)c3nc(/C=C/c4ccc5ccccc5n4)cn23)cc1 [Cpd 18, (E)-4-(5-(4-(2-(2-Methoxyethoxy)ethoxy)phenyl)-2-(2-(quinolin-2-yl)vinyl)imidazo[1,2-a]pyrazin-8-yl)morpholine]
18 | 15 | CN1C(=O)Nc2ccc(-c3cnc(N4CCOCC4)c4nc(/C=C/c5ccc6ccccc6n5)cn34)cc2S1(=O)=O [Cpd 19, (E)-2-Methyl-7-(8-morpholino-2-(2-(quinolin-2-yl)vinyl)imidazo[1,2-a]pyrazin-5-yl)-2H-benzo[e][1,2,4]thiadiazin-3(4H)-one 1,1-dioxide]
8 | 26 | CN1C(=O)N(C)S(=O)(=O)c2cc(-c3cnc(N4CCOCC4)c4nc(/C=C/c5ccc6ccccc6n5)cn34)ccc21 [Cpd 20, (E)-2,4-Dimethyl-7-(8-morpholino-2-(2-(quinolin-2-yl)vinyl)imidazo[1,2-a]pyrazin-5-yl)-2H-benzo[e][1,2,4]thiadiazin-3(4H)-one 1,1-dioxide]
25 | 31 | O=c1[nH]cnn1-c1ccc(-c2cnc(N3CCOCC3)c3nc(CCc4ccc5ccccc5n4)cn23)cc1 [Cpd 21, 1-(4-(8-Morpholino-2-(2-(quinolin-2-yl)ethyl)imidazo[1,2-a]pyrazin-5-yl)phenyl)-1H-1,2,4-triazol-5(4H)-one]
9 | 9 | O=C(O)CCNc1ccc(-c2cnc(N3CCOCC3)c3nc(/C=C/c4ccc5ccccc5n4)cn23)cc1 [Cpd 22, (E)-3-(4-(8-Morpholino-2-(2-(quinolin-2-yl)vinyl)imidazo[1,2-a]pyrazin-5-yl)phenylamino)propanoic acid trifluoroacetic acid salt]
8 | 6 | O=C(O)CCNc1ccc(-c2cnc(N3CCOCC3)c3nc(CCc4ccc5ccccc5n4)cn23)cc1 [Cpd 23, 3-(4-(8-Morpholino-2-(2-(quinolin-2-yl)ethyl)imidazo[1,2-a]pyrazin-5-yl)phenylamino)propanoic acid trifluoroacetic acid salt]
3 | 5 | CN1C(=O)NS(=O)(=O)c2cc(-c3cnc(N4CCOCC4)c4nc(/C=C/c5ccc6ccccc6n5)cn34)ccc21 [Cpd 24, (E)-4-Methyl-7-(8-morpholino-2-(2-(quinolin-2-yl)vinyl)imidazo[1,2-a]pyrazin-5-yl)-2H-benzo[e][1,2,4]thiadiazin-3(4H)-one 1,1-dioxide trifluoroacetic acid salt]
2 | 3 | CS(=O)(=O)NC(=O)c1cncc(-c2cnc(N3CCOCC3)c3nc(/C=C/c4ccc5ccccc5n4)cn23)c1 [Cpd 25, (E)-N-(Methylsulfonyl)-5-(8-morpholino-2-(2-(quinolin-2-yl)vinyl)imidazo[1,2-a]pyrazin-5-yl)nicotinamide]
6 | 8 | O=C1NC(=O)C(c2ccc(-c3cnc(N4CCOCC4)c4nc(CCc5ccc6ccccc6n5)cn34)cc2)O1 (stereo not shown) [Cpd 26, 5-(4-(8-Morpholino-2-(2-(quinolin-2-yl)ethyl)imidazo[1,2-a]pyrazin-5-yl)phenyl)oxazolidine-2,4-dione trifluoroacetic acid salt]
2 | 2 | O=C(O)c1cncc(-c2cnc(N3CCOCC3)c3nc(/C=C/c4ccc5ccccc5n4)cn23)c1 [Cpd 27, (E)-5-(8-Morpholino-2-(2-(quinolin-2-yl)vinyl)imidazo[1,2-a]pyrazin-5-yl)nicotinic acid]
24 | 15 | O=C(O)CNc1ccc(-c2cnc(N3CCOCC3)c3nc(/C=C/c4ccc5ccccc5n4)cn23)cc1 [Cpd 29, (E)-2-(4-(8-Morpholino-2-(2-(quinolin-2-yl)vinyl)imidazo[1,2-a]pyrazin-5-yl)phenylamino)acetic acid trifluoroacetic acid salt]
1 | 115 | COCCOCCOc1ccc(-c2cnc(N3CCOCC3)c3nc(CCc4ccc5ccccc5n4)cn23)cc1 [Cpd 31, 4-(5-(4-(2-(2-Methoxyethoxy)ethoxy)phenyl)-2-(2-(quinolin-2-yl)ethyl)imidazo[1,2-a]pyrazin-8-yl)morpholine]
 | 6 | CS(=O)(=O)NC(=O)c1ccc(-c2cnc(N3CCOCC3)c3nc(CCc4ccc5ccccc5n4)cn23)cc1 [Cpd 61, N-(Methylsulfonyl)-4-(8-morpholino-2-(2-(quinolin-2-yl)ethyl)imidazo[1,2-a]pyrazin-5-yl)benzamide hydrochloric acid salt]
 | 16 | CS(=O)(=O)NC(=O)c1ccc(-c2cnc(N3CCOCC3)c3nc(/C=C/c4ccc5ccccc5n4)cn23)cc1 [Cpd 62, (E)-N-(Methylsulfonyl)-4-(8-morpholino-2-(2-(quinolin-2-yl)vinyl)imidazo[1,2-a]pyrazin-5-yl)benzamide hydrochloric acid salt]

Compound | IC50 [1] [nM] | IC50 [2] [nM]
O=C(O)c1ccc(-c2cnc(N3CCOCC3)c3nc(CCc4ccc5ccccc5n4)cn23)cc1 [Cpd 17, 4-(8-Morpholino-2-(2-(quinolin-2-yl)ethyl)imidazo[1,2-a]pyrazin-5-yl)benzoic acid trifluoroacetic acid salt] | 3 | 3
